The values below are quoted from earlier work in US20050226908A1, “Efficacious composition of a benzimidazole, an avermectin and praziquantel and related methods of use” (Akzo Nobel N.V., priority 2004, published 2005).

This series has as its system parasites. To be noted: fenbendazole alone, one time treatment at 100 or 150 mg/kg; JAVMA 180, 1:53 (1982) and Am J Vet Res 39, 11:1799 (1978).

Take `COC(=O)Nc1nc2ccc(Sc3ccccc3)cc2[nH]1` [fenbendazole]: the “Efficacy of one time treatment” value is “not efficacious”.
